# Results as given in ChEMBL document CHEMBL3507680, “University of Dundee, Gates Library screen for HepG2 cell viability”.
# Assay: Human HepG2 cell viability assay in 384 well format
# Format: toxicity, cell-based
# Design: dose 125 nL, time 70.5 hour; cytotoxicity at 70.5 h: concentration not given beside the values
# Details: HepG2 cells, read-out: Inhibition
row,SMILES,cytotoxicity at 70.5 h
1,Cc1cc(CN2CCN(C(=O)NC(C)c3cccnc3)CC2)on1 (stereo unspecified),-11.7%
2,CCc1nnc(CN(C)C(=O)CN2CC(c3ccccc3)CC2=O)o1 (stereo unspecified),-4.25%
3,CC(C)c1nn(C)c(N(C)C)c1CNC1CCCCNC1=O (stereo unspecified),-4.04%
4,COc1cccc(-c2n[nH]cc2CNC2CCCN(C)C2)c1 (stereo unspecified),-5.83%
5,CC(=O)Nc1ccc(C(=O)Nc2cnc3n2CCCC3)c(C)c1,-1.77%
6,NCC1CN(c2nc(-c3cccnc3)nc3c2CCNCC3)CCO1 (stereo unspecified),26.4%
7,COCCN1C(=O)CCC12CCN(C(=O)CC1CC1)CC2,35.3%
8,O=C(COc1coc(CN2CCOCC2)cc1=O)Nc1ccccc1F,-12%
9,COCCN(C)C[C@H]1CC[C@@H](Cc2ccc3c(cnn3C)c2)O1,-6.52%
10,COc1cc(OC)cc(N2CCC(NCc3ccsc3)C2=O)c1 (stereo unspecified),33.1%
11,Cn1ccnc1C1CCN(CCC2CCOC2)CC1 (stereo unspecified),14.8%
12,CN1CCCC(N(C)C(=O)c2ccc(NC(=O)c3cc[nH]n3)cc2)C1 (stereo unspecified),-0.159%
13,CNS(=O)(=O)c1cccc(CNC(=O)c2cc(C)no2)c1,15.5%
14,CCn1cc(CN2CCN(Cc3cccc(OC)c3)C(=O)C2)cc1C#N,-1.17%
15,CCCn1nc2c(cc1=O)CN(Cc1nc(CCOC)no1)CC2,-3.53%
16,Cc1c(Cl)c(CN2CCCC2Cn2cncn2)nc2ccccc12 (stereo unspecified),-6.2%
17,Cc1sc2c(C3CCCN(C)C3)nc(C)n2c1C (stereo unspecified),24.3%
18,CN(C)CCNC(=O)c1sccc1N(C)S(=O)(=O)c1ccc(Cl)cc1,-17.4%
19,CN1CCN(CCOc2ccc(NC(=O)c3ccncc3)cc2)CC1,-3.29%
20,Cc1csc(N2CCN(CC(=O)Nc3cccnc3)CC2C)n1 (stereo unspecified),2.59%
21,CSCC[C@H](NC(=O)CCn1ccc2c(Br)cccc21)C(=O)O,-16.3%
22,CC(C)NC(=O)CS(=O)(=O)Cc1coc(-c2ccc(F)cc2)n1,-17.8%
23,COC(=O)CSCc1noc(-c2ccc(Cl)cc2)n1,-13.5%

row,SMILES,cytotoxicity at 70.5 h
1,COCCCN1CCCN(C(C)c2nc(C3CC3)no2)CC1 (stereo unspecified),-4.41%
2,Cn1cnc(S(=O)(=O)NCC2CCN(C(=O)Oc3ccccc3)CC2)c1,0.307%
3,CC1CCCN(C(=O)c2cccc(CS(C)(=O)=O)c2)C1 (stereo unspecified),7.89%
4,COCC1N(C(=O)N2CCOCC2)[C@H]2CC[C@]1(O)CC2 (stereo partly specified),-1.43%
5,Cc1noc(C)c1CCC(=O)NCCc1cccs1,-7.09%
6,COCc1cn(C2CCN(C(=O)Cc3ccsc3)CC2)nn1,-9.06%
7,CN(CCn1nc2ccccn2c1=O)CC(=O)NC1CC1,-8.39%
8,O=C(c1ccc2[nH]cnc2c1)N1CCC(Oc2ccccn2)CC1,1.58%
9,CCOc1cc(C)ccc1NC(=O)N(C)Cc1cnn(C)c1,-3.49%
10,CC(C(=O)NCCOc1ccc2c(c1)CCC2)n1cncn1 (stereo unspecified),7.17%
11,CCCN(C(=O)CN1CCN(CCO)CC1)C1=CCCCC1,-0.879%
12,COc1ccc(CN2C[C@@H](CN(C)CCO)[C@@H](CO)C2)cc1Cl,-7.1%
13,NS(=O)(=O)c1ccc(CC(=O)N2CCCC(n3cccn3)C2)cc1 (stereo unspecified),-7.64%
14,O=C(NC1CC1)c1cnc2n1CCCC2,6.87%
15,Cc1ccc(S(N)(=O)=O)cc1C(=O)NC1CCCC1,-1.13%
16,O=c1[nH]c2c(c(=O)n1C1CCCCC1)CCC2Nc1ccccc1Cl (stereo unspecified),21.6%
17,C=C(C)CN1CCN(CCC(=O)Nc2ccccc2C(N)=O)CC1,-10.8%
18,CC1=C[C@@H](CN2CCCC2)[C@H](C(C)C)C[C@H]1Cc1nnc(C)o1,-4.38%
19,O=S(=O)(CC1CCCCO1)Nc1cnn(Cc2ccccc2)c1 (stereo unspecified),-7.62%
20,Cc1nn(C)c(N(C)C)c1CNCC(O)c1ccccc1F (stereo unspecified),-15.4%
21,O=C(C1CCS(=O)(=O)C1)N1CCC(=Cc2cccc(F)c2)CC1 (stereo unspecified),-9.56%
22,CCOc1ccccc1C(=O)NS(=O)(=O)c1ccc2c(c1)OCCCO2,-4.55%
23,Cc1ccc(C(=O)N2CCc3ncnc(C)c3CC2)cc1F,6.96%
